Laboratory results as given in article PMC3130785, “Small Compound 6-O-Angeloylplenolin Induces Mitotic Arrest and Exhibits Therapeutic Potentials in Multiple Myeloma” (PLoS ONE, 2011).

What was measured:
[1] = test system: U266, RPMI 8226, MM.1S, and MM.1R cells; test: Trypan blue exclusion assay; format: cell-based, human; settings: 6-OAP 5 to 7.5 µM
Experimental: (§1) U266, RPMI 8226 cells (1×10^4), primary CD138+ cells, PBMCs (5×10^4), and BMSCs (1×10^4) were cultured in 96-well dishes and incubated without or with 6-OAP at indicated concentration for 48 h. MM.1S and MM.1R cells (2×10^4) were seeded into 96-well dishes and pre-cultured for 24 h, then treated with 6-OAP for 48 h. Cell proliferation was determined by MTT assay. Cell viability was estimated by trypan blue dye exclusion.

[2] = test system: CD138+ primary cells harvested from 7 MM patients; test: MTT assay on primary MM cells; format: cell-based, human
From the text: CD138+ cells from 7 MM patients were isolated with informed consent from BM mononuclear cells by using positive immunomagnetic column separation (Miltenyi Biotech, Auburn, CA). The purity of CD138+ cells is above 97% as determined by flow cytometry. BMSCs were generated from a MM patient-derived CD138-negative BM mononuclear cells cultured for 5 weeks. Peripheral blood mononuclear cells (PBMCs) from 5 healthy donors were separated by Ficoll-Hipaque density sedimentation.
as §1

MM.1R cells = test: MTT assay, Dex with or without 6-OAP; format: cell-based, human; settings: 48 h, 6-OAP 7.5 µM
Experimental: as §1
Figure 4 6-OAP enhances cytotoxicity of Dox, Dex and BOR to MM cells. (A through C) MM.1S cells were treated for 48 h with Dox (A), Dex (B) or BOR (C) in the presence or absence of 6-OAP at 5 µM. MTT assay was used to test the proliferation of MM.1S cells. (D) MM.1R cells were treated for 48 h with Dex in the presence or absence of 6-OAP at 7.5 µM. MTT assay was used to test the proliferation of MM.1R cells. *p<.001,** p<.05. (E) MM.1S cells were cultured with control media (con), 6-OAP (O, 5 µM), BOR (B, 3 nM), or 6-OAP (5 µM) plus BOR (3 nM) (OB) for indicated time points. Cells were then lysed and subjected to Western blotting using indicated antibodies. CF, cleavage fragment.

Bacillus subtilis = test system: Bacillus subtilis; set-up: method as in PMID 9461679, PMID 8657743, PMID 12521264; settings: cited from earlier work

SMILES: CC=C(C)C(=O)OC1C2C(CC(C)C3C=CC(=O)C31C)OC(=O)C2C (stereo not shown) [6-OAP, 6-O-angeloylplenolin]
- cell growth (trypan blue exclusion) [1]: markedly inhibited cell growth
- cell growth of CD138+ primary cells [2]: suppressed cell growth
- effect on inhibitory effect of Dex (MM.1R cells): drastically potentiated inhibitory effect
- antibacterial activity (Bacillus subtilis): exhibit antibacterial activity
